In patent EP0739882B1, “Novel aconitine compounds and analgesic/anti-inflammatory agent containing the same” (SANWA SHOYAKU KABUSHIKI KAISHA, priority 1991, dated 1993):

Tests used:
[1] = Property and solubility (qualitative solubility in solvents); type: physicochemical; conditions: for Solubility: solvents in which insoluble: hexane and water
[2] = system: Male mice of the Std:ddY Strain; assay: Analgesic activity by the acetic acid-induced writhing method; type: in vivo; conditions: Mus musculus; test compound s.c. 30 minutes before 0.7 % acetic acid i.p.; writhing counted for 10 minutes; Litchfield-Wilcoxon; 95 % confidence limits in brackets
Method: Experiment example 1 (Analgesic action)
Measurement of analgesic activity by the acetic acid-induced writhing method.
Male mice of the Std:ddY Strain (20 - 25g) were used. All mice were maintained at room temperature of 24 - 25 °C on a 12 hours light and dark cycle and were given food and water ad libitum. Test compound was used in 3 % suspension in gum arabic, 0.7 % acetic acid in 0.9 % physiological saline solution was injected i.p. (10ml / kg) at 30 minutes after test compound was administered s.c. After 10 minutes, the number of writhing movements was counted for a period of 10 minutes. 3 % gum arabic solution in 0.9 % physiological saline solution was used as a negative control. The ED50 values were calculated in accordance with the Litchfield-Wilcoxon's method based on judging to be positive in case of half and under the writhing number of negative control group.

[3] = Acute toxicity (LD50, s.c.); design: species or system mice; conditions: mouse, in vivo, sc, mortality during 72 hours, Litchfield-Wilcoxon, read-out: LD50 value, mg/kg (95 % confidence limits)
Method: Experiment example 3 (Acute toxicity)
Male mice of the Std:ddY Strain (20 - 25g) were used. The LD50 values were calculated using the method of Litchfield-Wilcoxon from the mortality during 72 hours after test compound was administered s.c. The results are shown in Table 3.

Molecule	Solubility: solvents in which soluble [1]	Solubility: solvents in which insoluble [1]	ED50 [2]	LD50 at 72 h [3]
3,13-dideoxy-14-O-m-chlorobenzoylaconine	Soluble in ether, chloroform, benzene, ethanol, methanol, ethylacetate, pyridine and dimethyl sulfoxide	Insoluble in hexane and water		
CCN1CC2(COC)CCC(OC)C34C5CC6C(OC)C(=O)C(C5C6OC(=O)c5cccc(Cl)c5)C(C(OC)C23)C14 (stereo not drawn) [3,13-dideoxy-14-O-m-chlorobenzoyl-16-epi-pyroaconine]	Soluble in ether, chloroform, benzene, ethanol, methanol, ethylacetate, pyridine and dimethyl sulfoxide	Insoluble in hexane and water	11 mg/kg	> 20 mg/kg
CCN1CC2(COC)CCC(OC)C34C5CC6(O)C(OC)C(=O)C(C5C6OC(=O)c5cccc(Cl)c5)C(C(OC)C23)C14 (stereo not drawn) [3-deoxy-14-O-m-chlorobenzoyl-16-epi-pyroaconine]	Soluble in ether, chloroform, benzene, ethanol, methanol, ethylacetate, pyridine and dimethyl sulfoxide	Insoluble in hexane and water	10.1 mg/kg	> 20 mg/kg
CCN1CC2(COC)CCC(OC)C34C5CC6C(OC)C(O)C(C5C6OC(=O)c5cccc(Cl)c5)C(C(OC)C23)C14 (stereo not shown) [3,8,13-trideoxy-14-O-m-chlorobenzoylaconine]	Soluble in ether, chloroform, benzene, ethanol, methanol, ethylacetate, pyridine and dimethyl sulfoxide	Insoluble in hexane and water		
CCN1CC2(COC)C(O)CC(OC)C34C5CC6(O)C(OC)C(O)C(O)(C5C6OC(=O)c5ccc(Br)cc5)C(C(OC)C23)C14 (stereo not shown) [14-O-p-bromobenzoylaconine]	Soluble in ether, chloroform, benzene, ethanol, methanol, acetone, ethylacetate, pyridine and dimethyl sulfoxide	Insoluble in hexane and water	6.42 mg/kg	> 30 mg/kg
14-O-m-chlorobenzoylaconine	Soluble in ether, chloroform, benzene, ethanol, methanol, ethylacetate, pyridine and dimethyl sulfoxide	Insoluble in hexane and water		
CCN1CC2(COC)C(O)CC(OC)C34C5CC6(O)C(OC)C(O)C(O)(C5C6OC(=O)c5ccc(F)cc5)C(C(OC)C23)C14 (stereo not shown) [14-O-p-fluorobenzoylaconine]	Soluble in ether, chloroform, benzene, ethanol, methanol, acetone, ethylacetate, pyridine and dimethyl sulfoxide	Insoluble in hexane and water	8.26 mg/kg	> 30 mg/kg
CCN1CC2(COC)C(O)CC(OC)C34C5CC6(O)C(OC)C(=O)C(C5C6OC(=O)c5cccc(Cl)c5)C(C(OC)C23)C14 (stereo not drawn) [14-O-m-chlorobenzoyl-16-epi-pyroaconine]	Soluble in ether, chloroform, benzene, ethanol, methanol, ethylacetate, pyridine and dimethyl sulfoxide	Insoluble in hexane and water	11.9 mg/kg	> 20 mg/kg
3-deoxy-14-O-m-chlorobenzoylaconine	Soluble in ether, chloroform, benzene, ethanol, methanol, ethylacetate, pyridine and dimethyl sulfoxide	Insoluble in hexane and water		
COCC12CN(C)C3C4C(OC)C1C3(C(OC)CC2O)C1CC2(O)C(OC)C(O)C4(O)C1C2OC(=O)c1ccc(Cl)cc1 (stereo not shown) [14-O-p-chlorobenzoylmesaconine]	Soluble in ether, chloroform, benzene, ethanol, methanol, acetone, ethylacetate, pyridine and dimethyl sulfoxide	Insoluble in hexane and water	5.85 mg/kg	> 30 mg/kg
3,8-dideoxy-14-O-m-chlorobenzoylaconine	Soluble in ether, chloroform, benzene, ethanol, methanol, ethylacetate, pyridine and dimethyl sulfoxide	Insoluble in hexane and water		
